Measured values taken from patent US20030004172A1, “Fused pyrimidinone matrix metalloproteinase inhibitors” (priority 2001, published 2003).

Target: MMP-13CD (catalytic domain of collagenase-3) (Homo sapiens, UniProt P45452)
Test: Thiopeptolide substrate hydrolysis inhibition assay, MMP-13CD
Format: biochemical
Details: Table I; thiopeptolide substrate, HEPES pH 7.0, 22° C.; read-out: MMP-13CD IC50
Excerpt: Thiopeptolide substrates show virtually no decomposition or hydrolysis at or below neutral pH in the absence of a matrix metalloproteinase enzyme.
Work on `O=C(OCc1ccc(/C=C/c2ccccc2)cc1)c1cc2c(=O)n(Cc3ccccc3)c(=O)[nH]c2s1` [Example 4] yielded an IC50 of 16000 nM.
For `COC(=O)/C=C/Cn1c(=O)c2cc(C(=O)NCc3ccc(OC)cc3)sc2n(C)c1=O` [Example 225, (E)-4-[6-(4-Methoxy-benzylcarbamoyl)-1-methyl-2,4-dioxo-1,4-dihydro-2H-thieno[2,3-d]pyrimidin-3-yl]-but-2-enoic acid methyl ester], the IC50 was 225 nM.
For `O=C(NCc1ccccc1)c1cc2c(=O)n(Cc3ccccc3)c(=O)[nH]c2s1` [Example 3, 3-Benzyl-2,4-dioxo-1,2,3,4-tetrahydro-thieno[2,3-d]pyrimidine-6-carboxylic acid benzyl amide], the IC50 was 30000 nM.
`COc1cccc(CNC(=O)c2cc3c(=O)n(CC#N)c(=O)n(C)c3s2)c1` [Example 224, 3-Cyanomethyl-1-methyl-2,4-dioxo-1,2,3,4-tetrahydro-thieno[2,3-d]pyrimidine-6-carboxylic acid 3-methoxy-benzylamide] gave an IC50 of 783 nM.
In the case of `Cc1ccc(-n2c(=O)[nH]c3sc(C(=O)OCc4ccccc4)c(C)c3c2=O)cc1` [Example 7, 5-Methyl-2,4-dioxo-3-p-tolyl-1,2,3,4-tetrahydro-thieno[2,3-d]-6-carboxylic acid benzyl ester], the IC50 is reported as 10000 nM.
In the case of `O=C(OCc1ccncc1)c1cc2c(=O)n(Cc3ccccc3)c(=O)[nH]c2s1` [Example 2, 3-Benzyl-2,4-dioxo-1,2,3,4-tetrahydro-thieno[2,3-d]pyrimidine-6-carboxylic acid pyridin-4-ylmethyl ester], the IC50 is reported as 310 nM.
`COc1ccc(CNC(=O)c2cc3c(=O)n(Cc4ccc(/C(N)=N/O)cc4)c(=O)n(C)c3s2)cc1` [Example 220, 3-[4-(N-Hydroxycarbamimidoyl)-benzyl]-1-methyl-2,4-dioxo-1,2,3,4-tetrahydro-thieno[2,3-d]pyrimidine-6-carboxylic acid 4-methoxy-benzylamide] showed an IC50 of 61 nM.
For `CSc1ccc(COC(=O)c2cc3c(=O)n(Cc4ccccc4)c(=O)n(C)c3s2)cc1` [Example 203, 3-Benzyl-1-methyl-2,4-dioxo-1,2,3,4-tetrahydro-thieno[2,3-d]pyrimidine-6-carboxylic acid 4-methylsulfanyl-benzyl ester], the IC50 was 360 nM.
With `COc1ccc(CNC(=O)c2cc3c(=O)n(CCOc4ccccc4)c(=O)n(C)c3s2)cc1` [Example 275] the IC50 was 36 nM.
For `CCOC(=O)c1ccc(Cn2c(=O)c3cc(C(=O)NCc4cccc(OC)c4)sc3n(C)c2=O)o1` [Example 65a, 5-[6-(3-Methoxy-benzylcarbamoyl)-1-methyl-2,4-dioxo-1,4-dihydro-2H-thieno[2,3-d]pyrimidin-3-ylmethyl]-furan-2-carboxylic acid ethyl ester], the IC50 was 1050 nM.
`Cn1c(=O)n(Cc2ccccc2)c(=O)c2cc(C(=O)OCc3c(F)cccc3F)sc21` [Example 158, 3-Benzyl-1-methyl-2,4-dioxo-1,2,3,4-tetrahydro-thieno[2,3-d]pyrimidine-6-carboxylic acid 2,6-difluoro-benzyl ester] gave an IC50 of 16000 nM.
Work on `COc1ccc(CNC(=O)c2cc3c(=O)n(Cc4ccccc4)c(=O)n(C)c3s2)cc1` [Example 340, 3-Benzyl-1-methyl-2,4-dioxo-1,2,3,4-tetrahydro-thieno[2,3-d]pyrimidine-6-carboxylic acid 4-methoxy-benzylamide] yielded an IC50 of 120 nM.
`COc1ccc(CNC(=O)c2cc3c(=O)n(CC(=O)C(CC(=O)OC(C)(C)C)NC(=O)OCc4ccccc4)c(=O)n(C)c3s2)cc1` (stereo not drawn) [Example 277] showed an IC50 of 20000 nM.
Work on `Cc1ccc(CNC(=O)c2cc3c(=O)n(Cc4ccccc4)c(=O)n(C)c3s2)cc1` [Example 213, 3-Benzyl-1-methyl-2,4-dioxo-1,2,3,4-tetrahydro-thieno[2,3-d]pyrimidine-6-carboxylic acid 4-methyl-benzylamide] yielded an IC50 of 1700 nM.
For `COc1cccc(CNC(=O)c2cc3c(=O)n(CCS(=O)(=O)c4ccc(C)cc4)c(=O)n(C)c3s2)c1` [Example 293], the IC50 was > 100000 nM.
In the case of `Cn1c(=O)n(Cc2ccccc2)c(=O)c2cc(C(=O)OCc3ccc([N+](=O)[O-])cc3)sc21` [Example 179, 3-Benzyl-1-methyl-2,4-dioxo-1,2,3,4-tetrahydro-thieno[2,3-d]pyrimidine-6-carboxylic acid 4-nitro-benzyl ester], the IC50 is reported as 250 nM.
For `Cn1c(=O)n(Cc2cccc(C(F)(F)F)c2)c(=O)c2cc(C(=O)OCc3ccccc3)sc21` [Example 110, 1-Methyl-2,4-dioxo-3-(3-trifluoromethyl-benzyl)-1,2,3,4-tetrahydro-thieno[2,3-d]pyrimidine-6-carboxylic acid benzyl ester], the IC50 was 420 nM.
With `C=C(C)Cn1c(=O)c2cc(C(=O)NCc3ccc(OC)cc3)sc2n(C)c1=O` [Example 263] the IC50 was 2150 nM.
`Cn1c(=O)n(Cc2ccccc2)c(=O)c2cc(C(=O)OCc3ccc4c(c3)OCO4)sc21` [Example 201, 3-Benzyl-1-methyl-2,4-dioxo-1,2,3,4-tetrahydro-thieno[2,3-d]pyrimidine-6-carboxylic acid 1,3-benzodioxol-5-ylmethyl ester] showed an IC50 of 300 nM.
Work on “3-Benzyl-1-methyl-2,4-dioxo-1,2,3,4-tetrahydro-thieno[2,3-d]pyrimidine-6-carboxylic acid ((S)-2,2-dimethyl-4-phenyl-1,3-dioxinan-5-yl)-amide [Example 341]” yielded an IC50 of 14000 nM.
With `Cn1c(=O)n(Cc2ccccc2)c(=O)c2cc(C(=O)OCc3ccc(C(F)(F)F)cc3)sc21` [Example 156, 3-Benzyl-1-methyl-2,4-dioxo-1,2,3,4-tetrahydro-thieno[2,3-d]pyrimidine-6-carboxylic acid 4-trifluoromethyl-benzyl ester] the IC50 was 180 nM.
Compound `COc1cccc(CNC(=O)c2cc3c(=O)n(Cc4ccc(C(=O)OCCN(C)C)cc4)c(=O)n(C)c3s2)c1` [Example 68, 4-[6-(3-Methoxy-benzylcarbamoyl)-1-methyl-2,4-dioxo-1,4-dihydro-2H-thieno[2,3-d]pyrimidin-3-ylmethyl]-benzoic acid 2-dimethylamino-ethyl ester] has an IC50 of 63.5 nM.
For `Cn1c(=O)n(Cc2nc(N)nc(Nc3ccccc3)n2)c(=O)c2cc(C(=O)OCc3ccccc3)sc21` [Example 105, 3(4-Amino-6-phenylamino-1,3,5-triazin-2-ylmethyl)-1-methyl-2,4-dioxo-1,2,4-tetrahydro-thieno[2,3-d]pyrimidine-6-carboxylic acid benzyl ester], the IC50 was 520 nM.
`COc1ccc(CNC(=O)c2cc3c(=O)n(Cc4ccc5nonc5c4)c(=O)n(C)c3s2)cc1` [Example 274] showed an IC50 of 18 nM.
Work on `COc1ccc(OC)c(C(=O)Cn2c(=O)c3cc(C(=O)OCc4ccccc4)sc3n(C)c2=O)c1` [Example 108, 3-[2-(2,5-Dimethoxy-phenyl)-2-oxo-ethyl]-1-methyl-2,4-dioxo-1,2,3,4-tetrahydro-thieno[2,3-d]pyrimidine-6-carboxylic acid benzyl ester] yielded an IC50 of 1700 nM.
With `Cn1c(=O)n(Cc2ccccc2)c(=O)c2cc(C(=O)NCc3ccc(Cl)cc3)sc21` [Example 357, 3-Benzyl-1-methyl-2,4-dioxo-1,2,3,4-tetrahydro-thieno[2,3-d]pyrimidine-6-carboxylic acid 4-chloro-benzylamide] the IC50 was 320 nM.
`Cn1ccc2cc(COC(=O)c3cc4c(=O)n(Cc5ccccc5)c(=O)n(C)c4s3)ccc21` [Example 305, 3-Benzyl-1-methyl-2,4-dioxo-1,2,3,4-tetrahydro-thieno[2,3-d]pyrimidine-6-carboxylic acid 1-methyl-1H-indol-5-ylmethyl ester] gave an IC50 of 46700 nM.
Work on `CN1CCC(OC(=O)c2cc3c(=O)n(Cc4ccccc4)c(=O)n(C)c3s2)CC1` [Example 161, 3-Benzyl-1-methyl-2,4-dioxo-1,2,3,4-tetrahydro-thieno[2,3-d]pyrimidine-6-carboxylic acid 1-methyl-piperidin-4-yl ester] yielded an IC50 of 11000 nM.
`COc1cccc(CNC(=O)c2cc3c(=O)n(Cc4ccc(C5(C(=O)O)CC5)cc4)c(=O)n(C)c3s2)c1` [Example 94, 1-{4-[6-(3-Methoxy-benzylcarbamoyl)-1-methyl-2,4-dioxo-1,4-dihydro-2H-thieno[2,3-d]pyrimidin-3-ylmethyl]-phenyl}-cyclopropanecarboxylic acid] gave an IC50 of 5.35 nM.
In the case of `Cn1c(=O)n(CCN2C(=O)c3ccccc3C2=O)c(=O)c2cc(C(=O)OCc3ccccc3)sc21` [Example 112, 3-[2-(1,3-Dioxo-1,3-dihydro-isoindol-2-yl)-ethyl]-1-methyl-2,4-dioxo-1,2,3,4-tetrahydro-thieno[2,3-d]pyrimidine-6-carboxylic acid benzyl ester], the IC50 is reported as 2900 nM.
With `Cn1c(=O)n(Cc2ccccc2)c(=O)c2cc(C(=O)OC3CCCc4ccccc43)sc21` (stereo not drawn) [Example 198, 3-Benzyl-1-methyl-2,4-dioxo-1,2,3,4-tetrahydro-thieno[2,3-d]pyrimidine-6-carboxylic acid 1,2,3,4-tetrahydro-naphthalen-1-yl ester] the IC50 was > 100000 nM.
`COc1cccc(CNC(=O)c2cc3c(=O)n(CCC(=O)c4ccccc4)c(=O)n(C)c3s2)c1` [Example 243, 1-Methyl-2,4-dioxo-3-(3-oxo-3-phenyl-propyl)-1,2,3,4-tetrahydro-thieno[2,3-d]pyrimidine-6-carboxylic acid 3-methoxy-benzylamide] gave an IC50 of 1400 nM.
Work on `COc1ccc(CNC(=O)c2cc3c(=O)n(CCC(=O)c4ccccc4)c(=O)n(C)c3s2)cc1` [Example 254] yielded an IC50 of 1500 nM.

Test system: not given
Test: not given
Details: not given
For `O=C(OCc1ccc(/C=C/c2ccccc2)cc1)c1cc2c(=O)n(Cc3ccccc3)c(=O)[nH]c2s1` [Example 4], the melting point was 247 to 249 °C.
For `COC(=O)/C=C/Cn1c(=O)c2cc(C(=O)NCc3ccc(OC)cc3)sc2n(C)c1=O` [Example 225, (E)-4-[6-(4-Methoxy-benzylcarbamoyl)-1-methyl-2,4-dioxo-1,4-dihydro-2H-thieno[2,3-d]pyrimidin-3-yl]-but-2-enoic acid methyl ester], the melting point was 169 to 171 °C.
In the case of `O=C(NCc1ccccc1)c1cc2c(=O)n(Cc3ccccc3)c(=O)[nH]c2s1` [Example 3, 3-Benzyl-2,4-dioxo-1,2,3,4-tetrahydro-thieno[2,3-d]pyrimidine-6-carboxylic acid benzyl amide], the melting point is reported as > 255 °C.
With `COc1cccc(CNC(=O)c2cc3c(=O)n(CC#N)c(=O)n(C)c3s2)c1` [Example 224, 3-Cyanomethyl-1-methyl-2,4-dioxo-1,2,3,4-tetrahydro-thieno[2,3-d]pyrimidine-6-carboxylic acid 3-methoxy-benzylamide] the melting point was 159 to 163 °C.
With `Cc1ccc(-n2c(=O)[nH]c3sc(C(=O)OCc4ccccc4)c(C)c3c2=O)cc1` [Example 7, 5-Methyl-2,4-dioxo-3-p-tolyl-1,2,3,4-tetrahydro-thieno[2,3-d]-6-carboxylic acid benzyl ester] the melting point was 267 to 269 °C.
With `O=C(OCc1ccncc1)c1cc2c(=O)n(Cc3ccccc3)c(=O)[nH]c2s1` [Example 2, 3-Benzyl-2,4-dioxo-1,2,3,4-tetrahydro-thieno[2,3-d]pyrimidine-6-carboxylic acid pyridin-4-ylmethyl ester] the melting point was 248 to 250 °C.
`COc1ccc(CNC(=O)c2cc3c(=O)n(CC#N)c(=O)n(C)c3s2)cc1` [Example 223, 3-Cyanomethyl-1-methyl-2,4-dioxo-1,2,3,4-tetrahydro-thieno[2,3-d]pyrimidine-6-carboxylic acid 4-methoxy-benzylamide] gave a melting point of 180 to 183 °C.
In the case of `COc1ccc(CNC(=O)c2cc3c(=O)n(Cc4ccc(/C(N)=N/O)cc4)c(=O)n(C)c3s2)cc1` [Example 220, 3-[4-(N-Hydroxycarbamimidoyl)-benzyl]-1-methyl-2,4-dioxo-1,2,3,4-tetrahydro-thieno[2,3-d]pyrimidine-6-carboxylic acid 4-methoxy-benzylamide], the melting point is reported as 226 to 228 °C (dec.).
Work on `Cn1c(=O)n(Cc2ccccc2)c(=O)c2cc(C(=O)OCc3ccccc3)sc21` [Example 9, 3-Benzyl-1-methyl-2,4-dioxo-1,2,3,4-tetrahydro-thieno[2,3-d]pyrimidine-6-carboxylic acid benzyl ester] yielded a melting point of 143 to 145 °C.
